Legend:
PARP1 = biological target: T1, PARP1 (Homo sapiens, UniProt P09874); assay: PARP enzymatic activity inhibition (Trevigen HT Universal PARP Assay Kit); type: biochemical
T1 construct: purchased Trevigen 4677-096-K
Method: PARP Enzymatic Activity Inhibition: Determination of IC50 Values for Selected Compounds (Data in FIG. 1)
(§1) The half maximal inhibitory concentration (IC50) with respect to PARP inhibition was determined for each test compound by using Trevigen's HT Universal PARP Assay Kit, according to the manufacturer's protocol (Cat #4677-096-K, Gaithersburg, Md.). This assay measures the incorporation of biotinylated poly(ADP-ribose) onto histone proteins in a 96-well strip well format. This assay is ideal for the determination of IC50 values of known or suspected PARP inhibitors. Briefly, stock solutions of each test compound were prepared in DMSO. Histone strip wells were incubated for 30 minutes at room temperature with 50 μl/well of 1×PARP Buffer to rehydrate the histones. Serial dilutions of either test compound were added to appropriate wells. Diluted PARP enzyme (0.5 Unit/well) was then added to the wells containing compounds, and incubated for 10 minutes at room temperature. Subsequently, 25 μl of 1×PARP Cocktail, containing activated DNA, was distributed into each well. Three types of control wells were also analyzed; i. A negative control without PARP was prepared to determine background absorbance. ii. An activity control for PARP Inhibitor Study: 0.5 Unit/well PARP-HSA without inhibitors. These wells provided the 100% activity reference point. iii. And a PARP Standard Curve: Serial dilution of the PARP-HAS standard were prepared in cold microtubes with 1×PARP Buffer such that the total activity is 1 Unit/25 μl, 0.5 Units/25 μl, 0.25 Units/25 μl, 0.1 Units/25 μl, 0.05 Units/25 μl, 0.025 Units/25 and 0.01 Units/25 μl. 25 μl of each standard was added to triplicate wells. Following a 60 minutes incubation at room temperature, the strip wells were washed twice with 1×PBS+0.1% Triton X-100, and twice with 1×PBS. For activity detection, 50 μl per well of diluted Strep-HRP was added, and then incubated at room temperature for 60 minutes. Subsequently, 50 μl per well of pre-warmed TACS-Sapphire™ colorimetric substrate was added followed by a 15 minutes incubation, in the dark, at room temperature. The reactions were then stopped by adding 50 μl per well of 0.2M HCl or 5% Phosphoric Acid and read the absorbance at 450 nm.
The IC50 values were determined by performing non-linear regression analysis fitting velocities and the logarithm of inhibitor concentrations to a sigmoidal dose response with a variable slope model using the GraphPad Prism 6.0 software.

ABL1 = ABL1 (Homo sapiens, UniProt P00519); assay: ABL kinase assay (Z'-LYTE biochemical kinase profiling); details: ATP 10 μM final
Sequence of ABL1 (P00519 whole entry): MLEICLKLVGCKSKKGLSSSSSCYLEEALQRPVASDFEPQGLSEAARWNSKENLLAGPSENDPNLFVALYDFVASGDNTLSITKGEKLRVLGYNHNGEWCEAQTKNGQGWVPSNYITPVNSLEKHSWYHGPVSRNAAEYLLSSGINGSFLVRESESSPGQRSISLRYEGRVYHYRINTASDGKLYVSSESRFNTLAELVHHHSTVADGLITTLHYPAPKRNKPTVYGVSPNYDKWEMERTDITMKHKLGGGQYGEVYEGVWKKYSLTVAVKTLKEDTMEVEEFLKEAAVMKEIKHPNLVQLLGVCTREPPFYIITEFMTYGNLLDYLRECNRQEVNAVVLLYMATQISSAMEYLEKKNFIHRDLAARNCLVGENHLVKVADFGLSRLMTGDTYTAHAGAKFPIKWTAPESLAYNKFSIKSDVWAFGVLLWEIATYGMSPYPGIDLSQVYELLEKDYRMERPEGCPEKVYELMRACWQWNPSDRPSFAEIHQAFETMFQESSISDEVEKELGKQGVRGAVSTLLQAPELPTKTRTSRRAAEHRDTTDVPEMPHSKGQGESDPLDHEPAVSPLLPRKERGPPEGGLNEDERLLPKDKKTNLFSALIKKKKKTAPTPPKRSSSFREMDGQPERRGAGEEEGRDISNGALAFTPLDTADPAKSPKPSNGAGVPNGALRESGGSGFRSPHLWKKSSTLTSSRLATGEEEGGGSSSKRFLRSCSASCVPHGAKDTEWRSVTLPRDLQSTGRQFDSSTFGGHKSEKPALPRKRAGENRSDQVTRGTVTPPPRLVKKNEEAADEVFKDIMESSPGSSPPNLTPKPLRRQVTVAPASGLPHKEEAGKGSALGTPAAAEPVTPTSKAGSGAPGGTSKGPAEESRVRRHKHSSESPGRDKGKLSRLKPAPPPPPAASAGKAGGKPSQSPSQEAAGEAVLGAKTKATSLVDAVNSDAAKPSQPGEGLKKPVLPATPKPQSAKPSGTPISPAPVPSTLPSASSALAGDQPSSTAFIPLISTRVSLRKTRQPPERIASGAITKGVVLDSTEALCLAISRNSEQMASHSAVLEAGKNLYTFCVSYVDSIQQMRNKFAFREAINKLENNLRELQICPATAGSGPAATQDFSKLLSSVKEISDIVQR
Method: ABL Kinase Assays (Data in FIG. 1)
The direct inhibitory effect of the test compounds on the ABL kinases activity was assessed using the Z′-LYTE biochemical kinase profiling assays (SelectScreen Kinase Profiling assays, Life Technologies). The Z′-LYTE biochemical assay employs a fluorescence-based, coupled-enzyme format and is based on the differential sensitivity of phosphorylated and non-phosphorylated peptides to proteolytic cleavage. The peptide substrate is labeled with two fluorophores (one at each end) that make up a FRET pair. In the primary reaction, the kinase transfers the gamma-phosphate of ATP to a single tyrosine, serine or threonine residue in a synthetic FRET-peptide. In the secondary reaction, a site-specific protease recognizes and cleaves non-phosphorylated FRET-peptides. Phosphorylation of FRET-peptides suppresses cleavage by the Development Reagent. Cleavage disrupts FRET between the donor and acceptor fluorophores on the FRET-peptide, whereas uncleaved, phosphorylated FRET-peptides maintain FRET. The extent of phosphorylation of the FRET-peptide can be calculated from the Emission Ratio between cleaved and uncleaved FRET-peptides. The Emission Ratio will remain low if the FRET-peptide is phosphorylated (i.e., no kinase inhibition) and will be high if the FRET-peptide is non-phosphorylated (i.e., kinase inhibition).
Using the above described assay, The Test Compounds were screened in 1% DMSO (final) in the well. 10 point titrations, 3-fold serial dilutions were conducted. Briefly, in a black 384-well plate serial dilutions of test compound or 100 nL 100× were mixed with kinase buffer peptide/Kinase Mixture and ATP Solution (10 μM final). After one hour Kinase Reaction incubation at room temperature, the development Reagent Solution was added. Subsequently, the fluorescence signals were measured using a fluorescence plate reader. Data were analyzed and the IC50 were calculated with XLfit graphing software using the sigmoidal dose-response model.

OVCAR8 = assay: Cell viability assay in solid tumor cell lines (Cell-Titer Glo), OVCAR8; type: cell-based; details: Homo sapiens, OVCAR-8, 72 hours
Method: (§2) Cell Viability Assay in Solid Tumors Cell Lines (Data in FIG. 2)
(§3) Human cancer cell lines (lung, ovarian, breast pancreatic and mesothelioma) were purchased from the ATCC. The cell lines were cultured in RPMI 1640 (Life Technologies, Carlsbad, Calif.) supplemented with 10% fetal bovine serum (FBS) and antibiotics. […] At the end of treatment, cell proliferation was determined by an intracellular adenosine triphosphate monitoring system (Cell-Titer Glo-Promega).
(§4) Inhibitory activity was evaluated comparing treated versus control data using the GraphPad Prism 6.0 software.

bovine brain tubulin = assay: Tubulin polymerization assay (Cytoskeleton kit BK011P); type: biochemical; details: % Inhibition versus control; compound concentration of 4 μM
Description: Tubulin Polymerization Assay (Data in FIG. 1)
The high-throughput screening-tubulin polymerization assay kit (Cytoskeleton, Cat. #BK011P) is an economical one step procedure for determining the effects of drugs or proteins on tubulin polymerization. Polymerization is followed by fluorescence enhancement due to the incorporation of a fluorescent reporter into microtubules as polymerization occurs. The standard assay tubulin generates a polymerization curve representing the three phases of microtubule formation, namely nucleation, growth, and steady state equilibrium. Compounds that interact with tubulin will often alter one or more of the characteristic phases of polymerization. For example, the anti-mitotic drug paclitaxel eliminates the nucleation phase and enhances the Vmax of the growth phase. Similarly, the microtubule destabilizing drug, vinblastine (also antimitotic) causes a decrease in Vmax and a reduction in final polymer mass. Thus, one application of this assay is the identification of novel anti-mitotics.
The direct effects of the test compounds on tubulin polymerization were investigated using the abovementioned Tubulin polymerization assay kit (Cytoskeleton, Cat. #BK011P), as indicated by the manufacturer protocol. Briefly, bovine brain tubulin (400 μg/sample) in the presence of either 0.5% DMSO treated (control), 4 μM test compounds, 3 μM paclitaxel (Cytoskeleton), or 3 μM vinblastine (Cytoskeleton) was incubated in PEM buffer [80 mm PIPES, 1 mm EGTA, 1 mm MgCl2 (pH 6.8)] containing 1.0 mm GTP (G-PEM) and 15% glycerol, at 37 C. All samples (wells) contained 15% glycerol. The degree of polymerization over time was measured in a spectrophotometer (Biotek synergy HT plate reader) at 350 nm. All time points were plotted and analyzed using GraphPad Prism 6.0 software.
DMSO control was set as 0% inhibition. Positive values depict the percentage of decrease in Vmax and final polymer mass, as compared to control. Negative values are inversely correlated to degree of nucleation phase elimination and the percentage of increase of the Vmax, as compared to control.

PARP2 = PARP2 (Homo sapiens, UniProt Q9UGN5); assay: PARP enzymatic activity inhibition, PARP2 column; type: biochemical
Sequence of PARP2 (Q9UGN5 whole entry, species assumed): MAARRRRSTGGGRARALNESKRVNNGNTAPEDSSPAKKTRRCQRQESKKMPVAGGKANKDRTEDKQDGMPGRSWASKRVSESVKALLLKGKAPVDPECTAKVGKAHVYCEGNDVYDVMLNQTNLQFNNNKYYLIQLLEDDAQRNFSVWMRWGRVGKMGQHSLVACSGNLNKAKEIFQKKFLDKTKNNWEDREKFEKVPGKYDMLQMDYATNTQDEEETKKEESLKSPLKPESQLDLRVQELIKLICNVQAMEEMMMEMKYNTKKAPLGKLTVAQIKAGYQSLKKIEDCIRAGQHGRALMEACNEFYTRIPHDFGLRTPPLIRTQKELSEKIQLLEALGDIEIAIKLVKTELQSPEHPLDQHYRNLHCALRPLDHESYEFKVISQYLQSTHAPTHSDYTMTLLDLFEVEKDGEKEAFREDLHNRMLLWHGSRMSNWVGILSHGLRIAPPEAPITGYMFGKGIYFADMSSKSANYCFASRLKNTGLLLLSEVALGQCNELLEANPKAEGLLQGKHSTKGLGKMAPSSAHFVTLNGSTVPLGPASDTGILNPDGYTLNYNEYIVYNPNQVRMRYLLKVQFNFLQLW
Method: as §1, with “And a PARP Standard Curve: Serial dilution of the PARP-HAS standard were prepared in cold microtubes with 1×PARP Buffer such that the total activity is 1 Unit/25 μl, 0.5 Units/25 μl, 0.25 Units/25 μl, 0.1 Units/25 μl, 0.05 Units/25 μl, 0.025 Units/25 and 0.01 Units/25 μl. 25 μl of each standard was added to triplicate wells. Following a 60 minutes incubation at room temperature, the strip wells were washed twice with 1×PBS+0.1% Triton X-100, and twice with 1×PBS. For activity detection, 50 μl per well of diluted Strep-HRP was added, and then incubated at room temperature for 60 minutes. Subsequently, 50 μl per well of pre-warmed TACS-Sapphire™ colorimetric substrate was added followed by a 15 minutes incubation, in the dark, at room temperature.” left out

A549 = assay: Cell viability assay in solid tumor cell lines (Cell-Titer Glo), A549; type: cell-based; details: Homo sapiens, 72 hours
Method: as §2, §3, §4

T1 sequence (P09874 whole entry): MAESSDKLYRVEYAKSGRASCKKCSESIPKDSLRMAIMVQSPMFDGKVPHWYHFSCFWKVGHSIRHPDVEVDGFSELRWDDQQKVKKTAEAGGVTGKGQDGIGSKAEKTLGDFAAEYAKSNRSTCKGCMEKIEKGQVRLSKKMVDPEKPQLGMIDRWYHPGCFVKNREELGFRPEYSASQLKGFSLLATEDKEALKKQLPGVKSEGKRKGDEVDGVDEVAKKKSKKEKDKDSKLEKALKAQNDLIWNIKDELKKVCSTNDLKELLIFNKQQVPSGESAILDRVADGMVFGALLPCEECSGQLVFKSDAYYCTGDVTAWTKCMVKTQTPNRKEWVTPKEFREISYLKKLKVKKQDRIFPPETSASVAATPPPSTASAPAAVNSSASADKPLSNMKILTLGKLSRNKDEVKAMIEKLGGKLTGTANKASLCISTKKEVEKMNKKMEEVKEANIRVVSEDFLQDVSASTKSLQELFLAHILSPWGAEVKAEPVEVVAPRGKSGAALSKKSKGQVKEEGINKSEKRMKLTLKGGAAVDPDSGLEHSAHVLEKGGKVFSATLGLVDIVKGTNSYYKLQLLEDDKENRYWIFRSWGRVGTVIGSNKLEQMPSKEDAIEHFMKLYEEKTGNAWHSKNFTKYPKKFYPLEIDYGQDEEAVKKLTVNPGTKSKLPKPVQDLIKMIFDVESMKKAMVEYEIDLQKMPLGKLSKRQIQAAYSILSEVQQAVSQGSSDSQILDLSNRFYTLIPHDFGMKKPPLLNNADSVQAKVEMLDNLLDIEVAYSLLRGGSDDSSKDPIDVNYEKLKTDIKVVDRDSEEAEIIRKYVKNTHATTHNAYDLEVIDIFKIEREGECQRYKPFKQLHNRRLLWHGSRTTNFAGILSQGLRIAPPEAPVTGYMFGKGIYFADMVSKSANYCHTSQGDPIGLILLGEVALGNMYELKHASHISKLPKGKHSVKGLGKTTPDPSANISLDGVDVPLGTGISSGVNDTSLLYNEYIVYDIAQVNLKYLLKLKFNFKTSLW

IC50 (PARP1) [nM] | IC50 (ABL1) [nM] | IC50 (OVCAR8) [nM] | IC50 (PARP2) [nM] | IC50 (A549) [nM] | Compound | Tubulin Polymerization Inhibition (bovine brain tubulin)
5000 to 10000 | < 500 | < 500 | < 500 | < 500 | CCOC(=O)Nc1nc2cc(-c3n[nH]c(=O)c4ccccc34)ccc2[nH]1 [Compound No. 1, Ethyl (5-(4-oxo-3,4-dihydrophthalazin-1-yl)-1H-benzimidazol-2-yl)carbamate] | Y (Y = (% Inhibition versus control) ≤20%. Results with a compound concentration of 4 μM)
> 10000 | 500 to 1000 | 1000 to 5000 | – | 1000 to 5000 | COC(=O)Nc1nc2cc(-c3n[nH]c(=O)c4ccccc34)ccc2[nH]1 [Compound No. 2, Methyl (5-(4-oxo-3,4-dihydrophthalazin-1-yl)-1H-benzimidazol-2-yl)carbamate] | X (X = (% Inhibition versus control) <20%. Results with a compound concentration of 4 μM)
5000 to 10000 | 500 to 1000 | 1000 to 5000 | – | 1000 to 5000 | COCCOC(=O)Nc1nc2cc(-c3n[nH]c(=O)c4ccccc34)ccc2[nH]1 [Compound No. 3, 2-Methoxyethyl (5-(4-oxo-3,4-dihydrophthalazin-1-yl)-1H-benzimidazol-2-yl)carbamate] | Y (Y = (% Inhibition versus control) ≤20%. Results with a compound concentration of 4 μM)
> 10000 | < 500 | 1000 to 5000 | – | 1000 to 5000 | CCNC(=O)Nc1nc2cc(-c3n[nH]c(=O)c4ccccc34)ccc2[nH]1 [Compound No. 80, 1-Ethyl-3-(5-(4-oxo-3,4-dihydrophthalazin-1-yl)-1H-benzimidazol-2-yl)urea] | –
5000 to 10000 | < 500 | < 500 | – | < 500 | CCCC(=O)Nc1nc2cc(-c3n[nH]c(=O)c4ccccc34)ccc2[nH]1 [Compound No. 86, N-(5-(4-oxo-3,4-dihydrophthalazin-1-yl)-1H-benzimidazol-2-yl)butyramide] | –
– | < 500 | < 500 | – | < 500 | CCCC(=O)Nc1nc2cc(-c3n[nH]c(=O)c4ccccc34)cc(Cl)c2[nH]1 [Compound No. 139, N-(7-chloro-5-(4-oxo-3,4-dihydrophthalazin-1-yl)-1H-benzimidazol-2-yl)butyramide] | –

Further lines, the compound ahead of its results:

Compound | IC50 (PARP1) [nM] | IC50 (ABL1) [nM] | IC50 (OVCAR8) [nM] | IC50 (PARP2) [nM] | IC50 (A549) [nM] | Tubulin Polymerization Inhibition (bovine brain tubulin)
CCOC(=O)Nc1nc2cc(-c3n[nH]c(=O)c4ccc(F)cc34)ccc2[nH]1 [Compound No. 9, Ethyl (5-(7-fluoro-4-oxo-3,4-dihydrophthalazin-1-yl)-1H-benzimidazol-2-yl)carbamate] | > 10000 | < 500 | < 500 | – | < 500 | –
CCOC(=O)Nc1nc2cc(-c3n[nH]c(=O)c4cc(F)c(F)cc34)ccc2[nH]1 [Compound No. 11, Ethyl (5-(6,7-difluoro-4-oxo-3,4-dihydrophthalazin-1-yl)-1H-benzimidazol-2-yl)carbamate] | > 10000 | < 500 | < 500 | – | < 500 | –
CCOC(=O)Nc1nc2cc(-c3n[nH]c(=O)c4cccc(Cl)c34)ccc2[nH]1 [Compound No. 20, Ethyl (5-(8-chloro-4-oxo-3,4-dihydrophthalazin-1-yl)-1H-benzimidazol-2-yl)carbamate] | > 10000 | 500 to 1000 | 500 to 1000 | – | 1000 to 5000 | –
CCOC(=O)Nc1nc2cc(-c3n[nH]c(=O)c4ccc(Cl)cc34)ccc2[nH]1 [Compound No. 21, Ethyl (5-(7-chloro-4-oxo-3,4-dihydrophthalazin-1-yl)-1H-benzimidazol-2-yl)carbamate] | > 10000 | < 500 | 500 to 1000 | – | 500 to 1000 | –
CCOC(=O)Nc1nc2cc(-c3n[nH]c(=O)c4cc(Cl)c(Cl)cc34)ccc2[nH]1 [Compound No. 23, Ethyl (5-(6,7-dichloro-4-oxo-3,4-dihydrophthalazin-1-yl)-1H-benzimidazol-2-yl)carbamate] | 1000 to 5000 | < 500 | < 500 | – | 500 to 1000 | –
CCOC(=O)Nc1nc2cc(-c3n[nH]c(=O)c4ccccc34)cc(Cl)c2[nH]1 [Compound No. 135, Ethyl (7-chloro-5-(4-oxo-3,4-dihydrophthalazin-1-yl)-1H-benzimidazol-2-yl)carbamate] | 1000 to 5000 | < 500 | < 500 | – | < 500 | –
CCOC(=O)Nc1nc2cc(-c3n[nH]c(=O)c4ccccc34)cc(Br)c2[nH]1 [Compound No. 140, Ethyl (7-bromo-5-(4-oxo-3,4-dihydrophthalazin-1-yl)-1H-benzimidazol-2-yl)carbamate] | 5000 to 10000 | < 500 | < 500 | – | < 500 | –
CCOC(=O)Nc1nc2cc(-c3n[nH]c(=O)c4ccccc34)cc(C)c2[nH]1 [Compound No. 145, Ethyl (7-methyl-5-(4-oxo-3,4-dihydrophthalazin-1-yl)-1H-benzimidazol-2-yl)carbamate] | > 10000 | 5000 to 10000 | < 500 | – | < 500 | –

Reference: patent publication US11708352B2, “Anti-cancer compounds” (THE REGENTS OF THE UNIVERSITY OF CALIFORNIA, priority 2015, dated 2023)
